Laboratory results as given in patent publication US20240180803A1, “HYALURONIC ACID-PRODUCTION PROMOTER” (NISSIN FOODS HOLDINGS CO., LTD., priority 2021, published 2024).

Test system: normal human dermal fibroblasts (NHDF)
Assay: Production capacity evaluation test of hyaluronic acid in cultured cells
Format: cell-based
Settings: for production capacity of hyaluronic acid with the NC taken as 100%: NHDF, 24 hours, culture supernatant; for Amount of hyaluronic acid produced obtained by subtracting NC / Measured value (amount of hyaluronic acid in the culture supernatant): NHDF culture supernatant; for Measured value (amount of hyaluronic acid in the culture supernatant): NC 942
Description: Reagents were first prepared. […] Next, preparation of cultured cells was performed. In Example, the preparation was performed with normal human dermal fibroblasts (NHDF). First, using Dulbecco's Modified Eagle Medium (DMEM, manufactured by Gibco) to which 10% heat-inactivated FBS (manufactured by Biowest) and penicillin-streptomycin (manufactured by Invitrogen) were added, NHDF was cultured under the conditions of 37° C., 5% CO2. NHDF cells were then seeded to a 24-well plate at 1.0×10^5 cells/well. Thereafter, the NHDF cells were cultured for 72 hours under the conditions mentioned above. After the cell culture, the culture supernatant was replaced with DMEM containing no FBS. […] Note that in cultured cells, the concentration is not related to an absorption rate, which is applied to oral intake. […] After the addition of the reagent or reagents, the cells were cultured for 24 hours under the conditions of 37° C., 5% CO2. The medium was recovered after culturing, and the concentration of the hyaluronic acid in the culture supernatant was measured using Hyaluronan DuoSet Kit (manufactured by R&D Systems). Note that the cell culture without reagent was set as a negative control (NC) in Example. […] Here, the cell culture without reagent was set as a negative control (NC), and the amount (ng/mL) of hyaluronic acid produced was determined by subtracting the amount of hyaluronic acid produced of the NC from the amount of hyaluronic acid produced of each compound with reagent.

SMILES	production capacity of hyaluronic acid with the NC taken as 100% (0.001 μM final concentration)	production capacity of hyaluronic acid with the NC taken as 100% (0.01 μM final concentration)	production capacity of hyaluronic acid with the NC taken as 100% (0.05 μM final concentration)	production capacity of hyaluronic acid with the NC taken as 100% (0.1 μM final concentration)	production capacity of hyaluronic acid with the NC taken as 100% (1 μM final concentration)	promotion capacity of hyaluronic acid production (in words) (concentrations of 0.01 mM or less and of 1 mM)	Amount of hyaluronic acid produced obtained by subtracting NC (final concentration 1 mM)	Measured value (amount of hyaluronic acid in the culture supernatant) (final concentration 1 mM)	promotion of hyaluronic acid production (in words) (any concentration tested (0.001 to 1 mM))	promotion capacity of hyaluronic acid production (in words) (concentrations from 0.01 to 0.05 mM)	amount of hyaluronic acid produced compared with substances having similar chemical structures (in words) (final concentration 1 mM)
CCCCCCCCCCCCCCCCCCCC(=O)O [Arachidic acid, arachidic acid]	111%	122%	102%	107%	127%	high promotion capacity of production					
O=c1c(-c2ccc(O)cc2)coc2cc(O)ccc12 [Daidzein, daidzein, reference compound]							0 ng/mL	891 ng/mL			
O=C(/C=C/c1ccc(O)cc1)c1ccc(O)cc1O [Isoliquiritigenin, isoliquiritigenin]		142%	138%		127%		562.7006 ng/mL	1504 ng/mL	promotion of hyaluronic acid production was confirmed	remarkably high promotion capacity of production	the highest
O=C(O)/C=C/c1ccc(O)cc1 [trans-p-coumaric Acid, Trans-p-coumaric acid, reference compound]							275.4202 ng/mL	1217 ng/mL			
O=C1C[C@@H](c2ccc(O)cc2)Oc2cc(O)ccc21 [Liquiritigenin, liquiritigenin, reference compound]							164.725 ng/mL	1106 ng/mL			
